Literature values, collected in US20130035357A1, “Compositions and Methods for Preventing Joint Destruction in Osteoarthritis” (TRUSTEES OF DARTMOUTH COLLEGE, priority 2010, published 2013).

Experiments:
[1] = system: retinoid acid receptors (RARs; e.g., RARα, RARβ, and RARγ)
[2] = system: RXRα, RXRβ, and RXRγ receptors
[3] = system: IL-1β-stimulated SW-1353 cells
[4] = human chondrocytic cells in vitro
[5] = in vitro, by decreasing the transcription rate of the gene

Structure (SMILES) | activity to bind retinoid acid receptors and to transactivate the related RAR genes [1] | potency as an RXR agonist relative to bexarotene ([2]; compared with bexarotene) | potency as an agonist across RXRα, RXRβ, and RXRγ receptors ([2]; comparison between the three RXR subtypes) | production of mRNA and protein for MMP-1 (MMP-1; [4]) | inhibition of proinflammatory cytokine-induced upregulation of MMP-1 (MMP-1; [5]) | breakdown of collagen by the cells [3, 4] | ability of IL-1β-stimulated SW-1353 cells to degrade collagen matrix ([3]; in vitro) | production of mRNA and protein for MMP-13 (MMP-13; [4]) | inhibition of proinflammatory cytokine-induced upregulation of MMP-13 (MMP-13; [5])
C=C(c1ccc(C(=O)O)cc1)c1cc2c(cc1C)C(C)(C)CCC2(C)C [Bexarotene, bexarotene] | negligible activity | – | – | – | – | – | – | – | –
Cc1cc2c(cc1C1(c3ccc(C(=O)O)cn3)CC1)C(C)(C)CCC2(C)C [LG268] | – | almost an order of magnitude more potent than bexarotene | equal potency | inhibit | inhibit | prevented breakdown of collagen | blunt | inhibit | inhibit
